These results are taken from patent publication US20020173491A1, “DAPD combination therapy with inosine monophosphate dehydrogenase inhibitor” (priority 2000, published 2002).

The target in series [1] is HIV reverse transcriptase (HIV-RT) (Human immunodeficiency virus type 1 group M subtype B, UniProt P04585). The settings on record: cited from earlier work.
Series [2] has as its system xxLAI strain of HIV-1. Kind of series: microbe, parasite or virus in culture. The settings on record: Human immunodeficiency virus 1, PBMC, 72 h. It is filed as cell-based. The procedure:
In this assay, cell supernatants were incubated on microelisa wells coated with antibodies to HIV-1 p24 core antigen. Subsequently, anti-HIV-1 conjugate labeled with horseradish peroxidase was added. The labeled antibody bound to the solid phase antibody/antigen complexes previously formed. Addition of the tetramethylbenzidine substrate results in blue color formation. The color turned yellow when the reaction is stopped. The plates were then analyzed on a plate reader set at 490 nm. The absorbance is a direct measurement of the amount of HIV-1 produced in each well and a decrease in color indicates decreased viral production. […] PBMC were obtained from HIV-1 negative donors by banding on Ficoll gradients, stimulated with phytohemaglutinin (PHAP) for 48 hours prior to infection with HIV-1, and infected with virus for 4 hours at 37° C. at a MOI of 0.001. […] Plates were incubated for 3 days at 37° C. The concentration of virus in each well was determined using the NEN p24 assay. Using the absorption values of the cell controls as 100% protection and drug free, virus infected cells as 0% protection, a dose response curve is generated by plotting percent protection on the Y axis and drug concentration on the X axis. From this curve, EC50 values were determined.
Compound dilutions and assay conditions were as described above.
MPA was also tested for activity against the xxLAI strain of HIV-1 in PBMCs using a p24 based Elisa assay. In this assay, cell supernatants are incubated on microelisa wells coated with antibodies to HIV-1 p24 core antigen. Subsequently, anti-HIV-1 conjugate labeled with horse radish peroxidase is added. The labeled antibody binds to the solid phase antibody/antigen complexes previously formed. Addition of the tetramethylbenzidine substrate results in blue color formation. The color turns yellow when the reaction is stopped. The plates are then analyzed on a plate reader set at 490 nm. The absorbance is a direct measurement of the amount of HIV-1 produced in each well and a decrease in color indicates decreased viral production. Dilutions of MPA were made in cell culture media in a 96 well plate, the highest concentration of MPA tested was 1 μM. PBMC were obtained from HIV-1 negative donors by banding on Ficoll gradients, stimulated with phytohemaglutinin (PHAP) for 48 hours prior to infection with HIV-1, and infected with virus for 4 hours at 37° C. at a MOI of 0.001. Infected cells were seeded into 96 well plates containing 4-fold serial dilutions of MPA. Plates were incubated for 3 days at 37° C. The concentration of virus in each well was determined using the NEN p24 assay. Using the absorption values of the cell controls as 100% protection and drug free, virus infected cells as 0% protection, a dose response curve is generated by plotting % protection on the Y axis and drug concentration on the X axis. From this curve EC50 values were determined.
Compound dilutions and assay conditions were as described above. The concentrations of MPA used were 1, 0.5, 0.25, 0.1, and 0.01 μM.

Series [3] deals with xxLAI strain of HIV-1. Kind of series: microbe, parasite or virus in culture. Format: cell-based. The note with it: compound alone, any of the concentrations tested (RBV up to 100 μM, MPA up to 1 μM). The procedure:
Triplicate samples of compound were tested. MT2 cells were infected with xxLAI at a multiplicity of infection (MOI) of 0.03 for 3 hours at 37° C. in 5% CO2. The infected cells were plated at 3.0×10^4/well into a 96 well plated containing drug dilutions and incubated for 5 days at 37° C. in CO2. […] This method has been modified into a susceptibility assay and has been used in a variety of in vitro antiviral tests and is readily adaptable to any system with a lytic virus (Weislow, O. S., et. al. 1989). Using the absorption values of the cell controls as 100% protection and no drug, virus infected cells as 0% protection, a dose response curve is generated by plotting % protection on the Y axis and drug concentration on the X axis. From this curve EC50 values were determined.
Assays were performed in the MT2 cell line as described above in the XXT sensitivity assay section.
MPA was tested for activity against the xxLAI strain of HIV-1 in the laboratory adapted cell line MT2. Dilutions of MPA were made in cell culture media in a 96 well plate; the highest concentration tested was 1 μM. Triplicate samples of compound were tested. MT2 cells were infected with xxLAI at a multiplicity of infection (MOI) of 0.03 for 3 hours at 37° C. in 5% CO2. The infected cells were plated at 3.0×10^4/well into a 96 well plated containing drug dilutions and incubated for 5 days at 37° C. in CO2. The antiviral activity of MPA was determined using the XTT assay described above. This method has been modified into a susceptibility assay and has been used in a variety of in vitro antiviral tests and is readily adaptable to any system with a lytic virus (Weislow, O. S., et. al. 1989). Using the absorption values of the cell controls as 100% protection and no drug, virus infected cells as 0% protection, a dose response curve is generated by plotting % protection on the Y axis and drug concentration on the X axis. From this curve EC50 values were determined.
The concentrations of MPA used were 1, 0.5, 0.25, 0.1, and 0.01 μM. Assays were performed in the MT2 cell line as described in section 3.1.

For series [4], the system named is HCV. The settings on record: ribavirin alone; cited from earlier work.
Series [5] is described as follows: XTT based cytotoxicity assay, MT2. The note with it: human, MT2 T-cell line, MT2 cells. The procedure: The XTT (2,3-bis(2-methoxy-4-nitro-5-sulfoxyphenyl)-5[(phenylamino)carbonyl]-2H-tetrazolium hydroxide) assay is an in vitro colorimetric cyto-protection assay. Reduction of XTT by mitochondria dehydrogenases results in the cleavage of the tetrazolium ring of XTT, yielding orange formazan crystals, which are soluble in aqueous solution. The resultant orange solution was read in a spectrophotometer at a wavelength of 450nm. […] Cells were added to the plat at 3×10^4/well (MTX) and 2×10^5/well (PBMC) and the plates were incubated for 5 days at 37° C. in a 5% CO2 incubator (addition of the cells to the plate diluted the compound to a final high concentration of 1 mM). At the end of the 5-day incubation, XTT was added to each well and incubated at 37° C. for 3 hours followed by the addition of acidified isopropanol. The plate was read at 450 nm in a 96 well plate reader. A dose response curve was generated using the absorption values of cells grown in the absence of compound as 100% protection.
MPA was tested for cytotoxicity on the laboratory adapted T-cell line MT2 and in PBMCs using a XTT based assay. […] The resultant orange solution is read in a spectrophotometer at a wavelength of 450nm. […] The plate was read at 450 nm in a 96 well plate reader. […]
Background: Tetrazolium dyes change colour on reduction, which living cells bring about.

A short description of series [6]: XTT based cytotoxicity assay, PBMC. Format: cell-based. The settings on record: human, PBMCs.
Method: The XTT (2,3-bis(2-methoxy-4-nitro-5-sulfoxyphenyl)-5[(phenylamino)carbonyl]-2H-tetrazolium hydroxide) assay is an in vitro colorimetric cyto-protection assay. Reduction of XTT by mitochondria dehydrogenases results in the cleavage of the tetrazolium ring of XTT, yielding orange formazan crystals, which are soluble in aqueous solution. […] Cells were added to the plat at 3×10^4/well (MTX) and 2×10^5/well (PBMC) and the plates were incubated for 5 days at 37° C. in a 5% CO2 incubator (addition of the cells to the plate diluted the compound to a final high concentration of 1 mM). At the end of the 5-day incubation, XTT was added to each well and incubated at 37° C. for 3 hours followed by the addition of acidified isopropanol. The plate was read at 450 nm in a 96 well plate reader. A dose response curve was generated using the absorption values of cells grown in the absence of compound as 100% protection.
The XTT (2,3-bis(2-methoxy-4-nitro-5-sulfophenyl)-5[(phenylamino)carbonyl]-2H-tetrazolium hydroxide) assay is an in vitro colorimetric cyto-protection assay. Reduction of XTT by mitochondria dehydrogenases results in the cleavage of the tetrazolium ring of XTT, yielding orange formazan crystals, which are soluble in aqueous solution. […] The plate was read at 450 nm in a 96 well plate reader. […]
Setting [7] is: read-out: EC50, HIV-1 replication in PBMCs, compound alone, p24, 3 days.

Molecules are shown by their SMILES. Read-outs that look alike come from different tables or passages of the source.

A word on the Ki: it is a dissociation constant, usually derived from enzyme kinetics or from competition with a known ligand. For `Nc1nc2c(ncn2C2COC(COP(=O)(O)OP(=O)(O)OP(=O)(O)O)O2)c(=O)[nH]1` (stereo not drawn) [DXG-TP], the Ki in series [1] is 0.019 µM.

A word on the EC50: it is the midpoint of the concentration-response curve. As usually defined, the CC50 is the concentration that lowers cell viability or growth by half. Read a high CC50 as lower toxicity to the cells. Regarding `NC(=O)c1ncn([C@@H]2O[C@H](CO)[C@@H](O)[C@H]2O)n1` [RBV, 1-β-D-ribofuranosyl-1,2,4-triazole-3-carboxamide], in series [2] (setting [7]), the EC50 was 20.5 µM. In addition, in series [3], the “activity against HIV-1 in MT2 cells” value is reported as “not active”. Further, in series [4], the “effect on serum levels of HCV-RNA” value is given as “does not lower” and the “patients with serum amino transferase levels reduced to normal” value is reported as 40%. In series [5], the CC50 at 5 days is greater than 1000 µM. This molecule yielded a CC50 at 5 days in series [6] greater than 1000 µM.

Turning to `COc1c(C)c2c(c(O)c1C/C=C(\C)CCC(=O)O)C(=O)OC2` [MPA, 6-(4-hydroxy-6-methoxy-7-methyl-3-oxo-5-phthalanyl)-4-methyl-4-hexanoic acid], the EC50 in series [2] (setting [7]) was 0.095 µM; in series [2] (read-out: median EC50, HIV-1 replication in PBMCs, compound alone, p24, 3 days) it was 0.095 µM. Further, the “activity against HIV-1 in MT2 cells” value in series [3] is “not active”. For the same molecule, the figures for the CC50 at 5 days in series [5] and in series [6] were 5.7 µM and 4.5 µM, respectively.
